Reference: the supplement of paper PMC10949913

What was measured:
Details in all cases: 48 h
[1] = tested on: CU-ACC1; assay: AC50 viability; higher = less potent
How it was run: (§1)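 Three adrenocortical carcinoma cell lines in 1,536-well plates received 23 nL of each library compound at 11 concentrations and were read with CellTiter-Glo after 48 h, with 15 minutes at room temperature before measuring luminescence. Vehicle and empty-well controls served for per-plate normalisation. AC50 and area under the curve were extracted from fitted concentration-response curves, discarding all curve classes other than inhibitory or non-responding.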

[2] = tested on: CU-ACC1; assay: area under concentration-response curve (viability) (AUC (a.u.)); higher = less active
How it was run: as §1

[3] = tested on: NCI-H295R; assay: AC50 viability; higher = less potent
How it was run: as §1

[4] = tested on: CU-ACC2; assay: area under concentration-response curve (viability) (AUC (a.u.)); higher = less active
How it was run: as §1

[5] = tested on: NCI-H295R; assay: as above
How it was run: as §1

SMILES | AC50 viability [1] [µM] | area under concentration-response curve [2] | AC50 viability [3] [µM] | area under concentration-response curve [4] | area under concentration-response curve [5]
CN(C)CCCOc1ccc(-c2ccc3ncc4c(c3c2)n(C2CCOCC2)c(=O)n4C)cn1 | 11.5 | 487 | – | – | –
CCOC1=CC(=CC=C1C/2=N/[C@@](C)(C3=CC=C(Cl)C=C3)[C@](C)(N2C(=O)N4CCN(CC4)CC(=O)N5CCOCC5)C6=CC=C(Cl)C=C6)C(C)(C)C | 16.3 | 440 | – | – | –
C[C@@H](Nc1cc(F)cc(F)c1)c1cc(C(=O)N(C)C)cc2c(=O)cc(N3CCOCC3)oc12 | 13.2 | 466 | – | – | –
O=C\1NC(=O)\C(=C1C2=C[NH]C3=C2C=CC=C3)C4=C[NH]C5=C4C=CC=C5 | – | 504 | 16.6 | 562 | 510
CCOc1ccc(Nc2nc(-c3c(C)nc4ccccn34)cs2)cc1 | – | 493 | 2.95 | 497 | 487
COc1cc([C@@H]2c3cc4c(cc3[C@H](O)[C@H]3COC(=O)[C@@H]23)OCO4)cc(OC)c1OC | – | 504 | 0.934 | 467 | 453
COc1cc(OC)c(/C=C/[S+](=O)([O-])Cc2ccc(OC)c(OP(=O)(O)O)c2)c(OC)c1 | – | 503 | 0.0295 | 484 | 407
CC(C)NC[C@@H](C(=O)N1CCN(c2ncnc3c2[C@H](C)C[C@H]3O)CC1)c1ccc(Cl)cc1 | – | 487 | 3.72 | 555 | 417
CN(C)CCCN\C1=C\2C(=O)N(C)C(=O)\N=C2N(C)C3=C1C=CC=C3 | 18.6 | 501 | – | – | –
COc1cccc2c1CCCC2CCCN1CCN(C2CCCCC2)CC1 (stereo not drawn) | 16.6 | 501 | – | – | –
C/C(=C\c1csc(C)n1)[C@@H]1C[C@@H]2O[C@]2(C)CCC[C@H](C)[C@H](O)[C@@H](C)C(=O)C(C)(C)[C@@H](O)CC(=O)O1 | – | 467 | 0.0118 | 548 | 346
COc1cc(C(N)=O)ccc1NC(=O)[C@@H]1N[C@@H](CC(C)(C)C)[C@@]2(C(=O)Nc3cc(Cl)ccc32)[C@H]1c1cccc(Cl)c1F | – | 495 | 20.9 | 604 | 536
C/C(=C\c1csc(C)n1)[C@@H]1C[C@@H]2O[C@]2(C)CCC[C@H](C)[C@H](O)[C@@H](C)C(=O)C(C)(C)[C@@H](O)CC(=O)N1 | – | 478 | 2.09 | 485 | 460
COc1ccc(OC)c(-c2nnc3ccc(-c4ccc(OC)c(O[C@@H]5CCOC5)c4)nn23)c1 | – | 482 | 5.9 | 624 | 541
OCCOc1ccc(/C(=C(/CCCl)c2ccccc2)c2ccccc2)cc1 | 23.5 | 470 | – | – | –
CCNCC[S+]([O-])(=O)NC[C@]1(S\C(=N/N1C(=O)C(C)(C)C)NC(=O)C(C)(C)C)C2=CC=CC=C2 | – | 452 | 0.209 | 544 | 415
CC(/C=C/[C@@H]1C[C@]1(C)c1ccc2c(c1)C(C)(C)CCC2(C)C)=C\C(=O)O | – | 525 | 18.6 | 650 | 538
Cc1cc2c(F)c(Oc3ncnn4cc(OCC(C)OC(=O)C(C)N)c(C)c34)ccc2[nH]1 (stereo not drawn) | – | 473 | 18.6 | 468 | 481
C=CCc1cccc(/C=N/NC(=O)CN2CCN(Cc3ccccc3)CC2)c1O | – | 523 | 26.3 | 650 | 587
CC(=O)c1cnc2ccc(-c3cc(Cl)c(O)c(Cl)c3)nc2c1N[C@H]1CC[C@H](CN(C)C)CC1 | – | 491 | 0.959 | 433 | 373
